What was measured:
Piezo1 channel = target: T1, Piezo1 channel (Homo sapiens, UniProt Q92508); test: Automated whole-cell patch clamp (SyncroPatch 384) of Piezo1-mediated currents in RBCs; assay type: cell-based; details: for responding cells out of total valid cells / responding cells out of total valid cells (any concentration) / concentration at which the response plateaus: +80 mV; for responding cells out of total valid cells (any concentration): current > baseline + 3σ at any concentration, N = 3; for EC50: human RBCs, responders only, current at +80 mV normalised to baseline, cumulative concentrations, Hill fit, room temperature; for concentration at which the response plateaus: normalised concentration-response curves
T1 construct: endogenous in cells; host or cells: human red blood cells (RBCs) from donor blood
T1 sequence (Q92508 whole entry): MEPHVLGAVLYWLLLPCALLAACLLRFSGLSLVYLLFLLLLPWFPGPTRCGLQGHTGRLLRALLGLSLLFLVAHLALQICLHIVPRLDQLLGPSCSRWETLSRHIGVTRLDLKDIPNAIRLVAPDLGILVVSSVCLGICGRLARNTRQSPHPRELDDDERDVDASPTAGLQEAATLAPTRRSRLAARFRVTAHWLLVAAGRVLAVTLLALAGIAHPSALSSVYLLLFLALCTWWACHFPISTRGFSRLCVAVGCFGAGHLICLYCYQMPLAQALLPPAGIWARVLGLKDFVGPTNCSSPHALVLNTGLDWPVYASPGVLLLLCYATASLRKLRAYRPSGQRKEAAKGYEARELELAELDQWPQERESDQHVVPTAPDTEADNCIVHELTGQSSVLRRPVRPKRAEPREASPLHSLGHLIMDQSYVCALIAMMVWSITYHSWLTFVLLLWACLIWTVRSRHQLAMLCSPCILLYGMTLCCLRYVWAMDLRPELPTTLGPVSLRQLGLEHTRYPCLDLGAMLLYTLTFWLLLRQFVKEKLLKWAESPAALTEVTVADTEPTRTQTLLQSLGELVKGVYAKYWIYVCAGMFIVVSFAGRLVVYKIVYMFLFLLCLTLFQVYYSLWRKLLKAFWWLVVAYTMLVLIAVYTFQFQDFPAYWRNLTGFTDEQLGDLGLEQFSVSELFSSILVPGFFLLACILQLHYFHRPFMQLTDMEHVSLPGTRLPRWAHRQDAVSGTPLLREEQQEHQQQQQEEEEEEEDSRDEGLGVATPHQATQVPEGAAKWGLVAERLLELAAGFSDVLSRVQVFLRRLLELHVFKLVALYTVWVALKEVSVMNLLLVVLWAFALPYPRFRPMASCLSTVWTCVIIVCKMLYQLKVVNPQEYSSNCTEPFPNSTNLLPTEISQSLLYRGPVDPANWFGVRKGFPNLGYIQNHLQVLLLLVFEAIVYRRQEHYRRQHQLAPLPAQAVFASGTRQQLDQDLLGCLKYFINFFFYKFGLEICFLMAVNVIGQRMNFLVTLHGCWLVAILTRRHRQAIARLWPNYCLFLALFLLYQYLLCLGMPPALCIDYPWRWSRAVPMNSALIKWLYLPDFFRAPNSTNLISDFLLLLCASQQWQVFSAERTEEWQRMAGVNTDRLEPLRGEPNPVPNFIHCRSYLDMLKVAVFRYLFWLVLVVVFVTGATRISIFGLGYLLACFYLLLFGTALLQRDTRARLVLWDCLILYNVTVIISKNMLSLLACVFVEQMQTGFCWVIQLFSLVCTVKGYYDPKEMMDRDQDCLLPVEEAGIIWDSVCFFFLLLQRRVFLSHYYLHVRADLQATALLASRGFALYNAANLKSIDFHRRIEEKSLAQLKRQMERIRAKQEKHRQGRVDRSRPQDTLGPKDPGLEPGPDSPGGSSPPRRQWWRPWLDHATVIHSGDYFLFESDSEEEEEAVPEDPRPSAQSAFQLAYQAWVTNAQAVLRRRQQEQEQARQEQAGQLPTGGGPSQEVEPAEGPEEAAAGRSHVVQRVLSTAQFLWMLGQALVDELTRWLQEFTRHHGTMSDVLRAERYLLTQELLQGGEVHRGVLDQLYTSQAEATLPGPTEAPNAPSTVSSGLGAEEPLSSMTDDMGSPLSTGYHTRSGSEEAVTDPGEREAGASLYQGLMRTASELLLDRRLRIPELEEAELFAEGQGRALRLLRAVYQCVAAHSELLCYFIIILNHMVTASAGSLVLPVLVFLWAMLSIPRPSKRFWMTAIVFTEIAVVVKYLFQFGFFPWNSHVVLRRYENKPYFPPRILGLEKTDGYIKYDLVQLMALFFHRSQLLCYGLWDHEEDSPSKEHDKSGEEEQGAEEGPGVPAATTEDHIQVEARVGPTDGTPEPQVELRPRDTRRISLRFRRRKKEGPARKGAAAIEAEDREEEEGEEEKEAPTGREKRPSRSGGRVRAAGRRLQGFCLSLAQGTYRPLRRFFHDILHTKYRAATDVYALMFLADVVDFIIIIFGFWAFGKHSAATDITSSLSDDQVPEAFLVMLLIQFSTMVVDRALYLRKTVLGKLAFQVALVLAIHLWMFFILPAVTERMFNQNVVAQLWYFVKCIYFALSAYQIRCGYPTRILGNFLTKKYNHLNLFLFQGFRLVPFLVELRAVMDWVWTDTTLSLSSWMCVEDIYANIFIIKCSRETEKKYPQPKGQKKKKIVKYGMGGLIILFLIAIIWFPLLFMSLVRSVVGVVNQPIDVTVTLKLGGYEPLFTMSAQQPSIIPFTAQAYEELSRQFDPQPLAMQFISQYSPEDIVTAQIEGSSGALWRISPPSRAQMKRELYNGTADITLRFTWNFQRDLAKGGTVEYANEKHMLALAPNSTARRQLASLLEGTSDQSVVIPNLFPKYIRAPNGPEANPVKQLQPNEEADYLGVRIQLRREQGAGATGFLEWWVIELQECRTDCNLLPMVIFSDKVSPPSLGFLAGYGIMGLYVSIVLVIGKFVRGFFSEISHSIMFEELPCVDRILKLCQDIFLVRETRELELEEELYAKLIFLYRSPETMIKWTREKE
Description: Whole-cell patch clamp recordings were performed using the SyncroPatch 384 (Nanion Technologies, Munich, Germany) as previously described. Experiments were conducted at room temperature using NPC-384 single-hole microchips with resistances ranging from 6 to 10 MΩ. Recording solutions contained (in mM) 110 KF, 10 KCl, 10 NaCl, 10 EGTA, and 10 HEPES, pH 7.2 (KOH) (internal); and 140 NaCl, 4 KCl, 2 CaCl2, 1 MgCl2, 5 D-glucose monohydrate, and 10 HEPES, pH 7.4 (NaOH) (external). Data acquisition was conducted using PatchControl384 v3.2.2 (Nanion Technologies, Munich, Germany), sampled at 10 kHz.
Piezo1-mediated currents were elicited using a voltage ramp protocol ranging from −100 mV to +80 mV over 450 ms, applied every 10 s, with a holding potential set at −30 mV. After establishing a stable baseline current in the external solution, cells were exposed to increasing concentrations of either Yoda1 or Yoda2 (Tocris Bioscience, Bristol, UK) in a cumulative manner: 41 nM, 144 nM, 442 nM, 1.33 μM, 4 μM, and 8 μM. To block channel activity, 30 μM GdCl3 (Sigma-Aldrich, Merck KGaA, Taufkirchen, Germany, a non-selective ion channel inhibitor, was subsequently applied.
RBCs were classified as responders if the mean current amplitude in the presence of the compound exceeded the mean current at baseline conditions by more than three times the standard deviation of the baseline (3σ). For EC50 determination, current amplitudes at each concentration were normalised to the baseline current, and dose–response curves were fitted using the Hill equation.

[1] = tested on: free Ca^2+ in healthy red blood cells (RBCs); test: Intracellular Ca2+ by Fluo-4 flow cytometry in RBCs; assay type: cell-based, human; details: for EC50: maximum average Fluo-4 intensity of all RBCs during recording, Hill fit, flow cytometry, read-out: EC50 (Ca^2+ Measurements)
Description: Experiments for the intracellular Ca^2+ detection of RBCs were performed in Tyrode solution containing (in mM) 130 NaCl, 5 KCl, 5 glucose, 10 HEPES, 1 MgCl2, and 1.5 CaCl2. The pH was adjusted to 7.40 with NaOH. All salts were of analytical grade. The cells were loaded with Fluo-4 AM (Molecular Probes, Eugene, OR, USA) at a concentration of 5 μM for 1 hour at 37 °C. Then, the cells were washed three times with Tyrode solution.
Flow cytometry measurements were performed on LSRFortessa (Becton Dickinson, Franklin Lakes, NJ, USA). Washed RBCs from 50 μL of blood were loaded with Fluo-4 as previously described and washed again. For flow cytometry analysis, 10 μL of cell suspension was added to 700 μL of designed buffer and transferred to 5 mL round-bottom polystyrene test tubes (Corning Inc., Corning, NY, USA). For each sample, data recording started 1 minute after the cells were in the designed buffer for 10 minutes. The results were assessed using FlowJo (Becton Dickinson, Franklin Lakes, NJ, USA).

[2] = tested on: membrane potential of RBCs (Gárdos channel activity); test: Membrane potential measurement (MBE method), hyperpolarisation by Gárdos channel activity; assay type: cell-based, human; details: magnitude of membrane hyperpolarisation ΔVm, Hill fit
Description: The membrane potential of RBCs was measured using a method originally described by Macey et al., subsequently refined by Poul Bennekou, e.g., [27], and later optimised by the group of Stéphane Egée, e.g., [28]. As such, the method is referred to as the MBE method after the three scientists who most contributed to it. For each experiment, a 2 mL microcentrifuge tube was prepared with 1 mL of Ringer solution containing (in mM) 153 NaCl, 2 KCl, and 4 CaCl2. All reagents were of analytical grade and dissolved in Milli-Q water. Protonophore carbonyl cyanide m-chlorophenyl hydrazone (CCCP) was added at a final concentration of 26 µM to increase the hydrogen permeability of membranes. The tube was placed in a 36 °C water bath, and a magnetic stir bar was added to ensure continuous mixing. A calibrated pH electrode (InLab Expert Pro pH electrode, Mettler-Toledo GmbH, Greifensee, Switzerland) was immersed in the solution to monitor pH changes in real time, with data acquisition and recording performed via software on a connected computer. […] The system was monitored for an additional 5 minutes to observe the effects of the compound on the RBCs. […]
The membrane potential (Vm) was calculated from the recorded pH data using the following equation:Vm [mV] = −61.5 × (pHval − pHlys), where pHval is the pH value measured at a specific time point, and pHlys is the final pH value obtained after cell lysis.

[3] = tested on: free Ca^2+ in healthy red blood cells (RBCs); parameters: method as in PMID 29259557, PMID 33208899; details: cited from earlier work
[4] = tested on: membrane potential of RBCs (Gárdos channel activity); parameters: method as in PMID 37492641; details: RBCs pretreated with the inhibitor; cited from earlier work

[Cl][Gd]([Cl])[Cl] [GdCl3]
block of Piezo1 channel activity (Piezo1 channel; 30 μM, applied after cumulative Yoda1 or Yoda2): block Piezo1 channel activity completely

Clc1cccc(Cl)c1CSc1nnc(-c2cnccn2)s1 [Yoda1]
responding cells out of total valid cells (Piezo1 channel; 41 nM): 2/172 | responding cells out of total valid cells (Piezo1 channel; 144 nM): 9/172 | responding cells out of total valid cells (Piezo1 channel; 442 nM): 16/172 | responding cells out of total valid cells (Piezo1 channel; 1330 nM): 26/172 | responding cells out of total valid cells (Piezo1 channel; 4000 nM): 30/172 | responding cells out of total valid cells (Piezo1 channel; 8000 nM): 35/172 | responding cells out of total valid cells (any concentration) (Piezo1 channel): 35/172 | EC50 (Piezo1 channel): 1390 nM | concentration at which the response plateaus (Piezo1 channel): did not plateau | Fluo-4 (Ca^2+) response of RBCs ([1]; 40 nM): no obvious response | EC50 [1]: 1180 nM | EC50 [2]: 305 nM

O=C(O)c1ccc(-c2nnc(SCc3c(Cl)cccc3Cl)s2)cc1 [Yoda2]
responding cells out of total valid cells (Piezo1 channel; 41 nM): 3/171 | responding cells out of total valid cells (Piezo1 channel; 144 nM): 12/171 | responding cells out of total valid cells (Piezo1 channel; 442 nM): 24/171 | responding cells out of total valid cells (Piezo1 channel; 1330 nM): 30/171 | responding cells out of total valid cells (Piezo1 channel; 4000 nM): 30/171 | responding cells out of total valid cells (Piezo1 channel; 8000 nM): 31/171 | responding cells out of total valid cells (any concentration) (Piezo1 channel): 35/171 | EC50 (Piezo1 channel): 305 nM | concentration at which the response plateaus (Piezo1 channel): around 4 μM | Fluo-4 (Ca^2+) response of RBCs ([1]; 80 nM): no obvious response | EC50 [1]: 986 nM | EC50 [2]: 465 nM

GsMTx4
inhibition of increased Ca^2+ induced by Yoda1 or mechanical stress [3]: significantly inhibited | inhibition of hyperpolarisation [4]: largely inhibited

— publication PMC12384225, “Piezo1 Channel Activators Yoda1 and Yoda2 in the Context of Red Blood Cells” (Biomolecules, 2025)
